Experiments:
[1] = system: endometrial (ECC-1 and KLE) and ovarian (HCH-1, OVCAR-3, and SKOV-3) cancer cell lines; assay: MTS cell viability, gynecologic cancer cell line panel; assay type: cell-based; conditions: for cytotoxic / anti-proliferative activity (FIG. 2A): fixed concentration 100 μM, 24 hours; for proliferation in multiple endometrial and ovarian cancer cells: at considerably lower doses than FCF
Description: Cell lines, Culture, and Reagents. Cells were maintained in either DMEM (SKOV-3, KLE, OVCAR-3, OVCAR8-C5 and IGROV-1) or RPMI-1640 (ECC-1 and HCH-1), supplemented with 10% fetal calf serum (or 20% for OVCAR-3), penicillin (100 units/mL), and streptomycin (100 μg/mL) at 37° C. with 5% CO2 in a humidified incubator. Antibodies were purchased from Abcam (septin-2; ab179436) and Cell Signaling Technology; ERK (9102), p-ERK (4370), -actin (3700), u-Tubulin (2144), EGFR (4267) and HER2 (4290). FCF was purchased from Abcam. All other chemicals were from Sigma Aldrich. Synthesis of Derivaties. […] The reaction was monitored using thin-layer chromatography plates with DCM-MeOH or pure ethyl acetate as eluent. Spots were monitored in a UV chamber. The reaction mixture, upon completion of the reaction, was poured into wet ice mixture and triturated, then the separated solid was filtered by vacuum. The product was washed with hexane, followed by diethyl ether, and was dried under vacuum. The compounds were characterized by spectrophotometric techniques. Quantitative Real-Time PCR. The indicated cell lines were transfected with siRNA targeting septin-2 or non-targeting control siRNA (Santa Cruz Biotechnology: sc-37007 or sc-40936) using Lipofectamine 3000 (Invitrogen). Tri reagent and Direct-zol kit (Zymo Research) were used to lyse and isolate total RNA. Reverse transcription was performed using iScript cDNA synthesis kit (BioRad), both following the manufacturer's recommendations. Quantitative real-time PCR was conducted using QuantStudio 12 K Flex Real-Time PCR System (ABI) and the Taqman Gene Expression Assay (ABI) consisting of the FAM-labeled probes as follows: SEPT2 (Hs01565417_ml); WFDC2 (Hs00899484_ml); TBP (Hs00427620_ml) or B2M (Hs00187842_ml), which was used as reference for normalization. Cell Viability, Proliferation and Apoptosis Assay. Cell viability, proliferation, and cellular apoptosis were measured using the MTS (Promega), BrdU cell proliferation (Cell Signaling Technology), and Caspase-Glo 3/7 apoptosis detection (Promega) assays, following the respective manufacturer's recommendations with suitable modification. Enzyme-Linked Immunosorbent Assay (ELISA) and Immunoblotting. Cells were maintained overnight in the culture media described above. […] Following the treatment, cell lysates and supernatants were collected and subjected to HE4 assay (Human HE4 Quantikine ELISA Kit, R&D Systems). The amount of HE4 in supernatant was normalized to the protein concentration of matching cell lysate. The levels of HER2 were determined by Human Total ErbB2/Her2 DuoSet IC ELISA (R&D systems. Wester blot analysis was conducted using the protocol previously published (see Kim, K. K. et al. Tetrathiomolybdate inhibits mitochondrial complex IV and mediates degradation of hypoxia-inducible factor-1alpha in cancer cells. Sci. Rep. 5, 14296, 2015). Data Acquisition and Statistical Analysis. Gene expression profiling of septins, comparing microdissected normal ovarian stroma (N=8) against that of tumor stroma samples (N=31) from high grade serous ovarian cancer patients, was obtained from Mixed Ovarian Cancer (CAFs)-Wong-77-u133p2 data-set through ‘R2: Genomics Analysis and Visualization Platform (http://r2/am/n1). Mean values with SD were plotted and compared using Student t-test (two tail, unpaired heteroscedastic t-test, significant difference when p<0.01). The prognostic assessment of septin-2 amongst different cancers or septins in endometrial cancer was conducted using TCGA data acquired through Human Protein Atlas (http://www.proteinatlas.org) (see Uhlen, M. et al. Towards a knowledge-based Human Protein Atlas. Nat. Biotechnol. 28, 1248-1250, 2010). Survival curves between septin high and low population and their statistical significance were analyzed using GraphPad Prism software (Mantel-Cox test). […] Structural Modification of FCF. […]

[2] = system: JIMT-1 breast cancer cells; assay: RNA-Seq whole transcriptome analysis, JIMT-1; assay type: cell-based, human; conditions: 10 nM Afatinib
[3] = system: HE4; assay: HE4 ELISA, secreted and intracellular levels; assay type: cell-based, human; conditions: ECC-1, 5 hours
Description: Cell lines, Culture, and Reagents. Cells were maintained in either DMEM (SKOV-3, KLE, OVCAR-3, OVCAR8-C5 and IGROV-1) or RPMI-1640 (ECC-1 and HCH-1), supplemented with 10% fetal calf serum (or 20% for OVCAR-3), penicillin (100 units/mL), and streptomycin (100 μg/mL) at 37° C. with 5% CO2 in a humidified incubator. Antibodies were purchased from Abcam (septin-2; ab179436) and Cell Signaling Technology; ERK (9102), p-ERK (4370), -actin (3700), u-Tubulin (2144), EGFR (4267) and HER2 (4290). FCF was purchased from Abcam. All other chemicals were from Sigma Aldrich. Synthesis of Derivaties. […] The reaction was monitored using thin-layer chromatography plates with DCM-MeOH or pure ethyl acetate as eluent. Spots were monitored in a UV chamber. The reaction mixture, upon completion of the reaction, was poured into wet ice mixture and triturated, then the separated solid was filtered by vacuum. The product was washed with hexane, followed by diethyl ether, and was dried under vacuum. The compounds were characterized by spectrophotometric techniques. Quantitative Real-Time PCR. The indicated cell lines were transfected with siRNA targeting septin-2 or non-targeting control siRNA (Santa Cruz Biotechnology: sc-37007 or sc-40936) using Lipofectamine 3000 (Invitrogen). Tri reagent and Direct-zol kit (Zymo Research) were used to lyse and isolate total RNA. Reverse transcription was performed using iScript cDNA synthesis kit (BioRad), both following the manufacturer's recommendations. Quantitative real-time PCR was conducted using QuantStudio 12 K Flex Real-Time PCR System (ABI) and the Taqman Gene Expression Assay (ABI) consisting of the FAM-labeled probes as follows: SEPT2 (Hs01565417_ml); WFDC2 (Hs00899484_ml); TBP (Hs00427620_ml) or B2M (Hs00187842_ml), which was used as reference for normalization. Cell Viability, Proliferation and Apoptosis Assay. Cell viability, proliferation, and cellular apoptosis were measured using the MTS (Promega), BrdU cell proliferation (Cell Signaling Technology), and Caspase-Glo 3/7 apoptosis detection (Promega) assays, following the respective manufacturer's recommendations with suitable modification. Enzyme-Linked Immunosorbent Assay (ELISA) and Immunoblotting. Cells were maintained overnight in the culture media described above. […] Following the treatment, cell lysates and supernatants were collected and subjected to HE4 assay (Human HE4 Quantikine ELISA Kit, R&D Systems). The amount of HE4 in supernatant was normalized to the protein concentration of matching cell lysate. The levels of HER2 were determined by Human Total ErbB2/Her2 DuoSet IC ELISA (R&D systems. Wester blot analysis was conducted using the protocol previously published (see Kim, K. K. et al. Tetrathiomolybdate inhibits mitochondrial complex IV and mediates degradation of hypoxia-inducible factor-1alpha in cancer cells. Sci. Rep. 5, 14296, 2015). Data Acquisition and Statistical Analysis. Gene expression profiling of septins, comparing microdissected normal ovarian stroma (N=8) against that of tumor stroma samples (N=31) from high grade serous ovarian cancer patients, was obtained from Mixed Ovarian Cancer (CAFs)-Wong-77-u133p2 data-set through ‘R2: Genomics Analysis and Visualization Platform (http://r2/am/n1). […] Survival curves between septin high and low population and their statistical significance were analyzed using GraphPad Prism software (Mantel-Cox test). […]

[4] = system: HCH-1 cells; assay: MTS cell viability, HCH-1; assay type: cell-based; conditions: HCH-1, 72 hours, compared with UR214-9
Description: (§1) Cell lines, Culture, and Reagents. Cells were maintained in either DMEM (SKOV-3, KLE, OVCAR-3, OVCAR8-C5 and IGROV-1) or RPMI-1640 (ECC-1 and HCH-1), supplemented with 10% fetal calf serum (or 20% for OVCAR-3), penicillin (100 units/mL), and streptomycin (100 μg/mL) at 37° C. with 5% CO2 in a humidified incubator. Antibodies were purchased from Abcam (septin-2; ab179436) and Cell Signaling Technology; ERK (9102), p-ERK (4370), -actin (3700), u-Tubulin (2144), EGFR (4267) and HER2 (4290). FCF was purchased from Abcam. All other chemicals were from Sigma Aldrich. Synthesis of Derivaties. […] The reaction was monitored using thin-layer chromatography plates with DCM-MeOH or pure ethyl acetate as eluent. Spots were monitored in a UV chamber. […] Quantitative Real-Time PCR. […] Quantitative real-time PCR was conducted using QuantStudio 12 K Flex Real-Time PCR System (ABI) and the Taqman Gene Expression Assay (ABI) consisting of the FAM-labeled probes as follows: SEPT2 (Hs01565417_ml); WFDC2 (Hs00899484_ml); TBP (Hs00427620_ml) or B2M (Hs00187842_ml), which was used as reference for normalization. […] Cell viability, proliferation, and cellular apoptosis were measured using the MTS (Promega), BrdU cell proliferation (Cell Signaling Technology), and Caspase-Glo 3/7 apoptosis detection (Promega) assays, following the respective manufacturer's recommendations with suitable modification. […]

[5] = system: ECC-1 cells; assay: MTS cell viability, ECC-1; assay type: cell-based; conditions: ECC-1, 48 hours, MTS (FIG. 2B)
Description: (§2) Cell lines, Culture, and Reagents. Cells were maintained in either DMEM (SKOV-3, KLE, OVCAR-3, OVCAR8-C5 and IGROV-1) or RPMI-1640 (ECC-1 and HCH-1), supplemented with 10% fetal calf serum (or 20% for OVCAR-3), penicillin (100 units/mL), and streptomycin (100 μg/mL) at 37° C. with 5% CO2 in a humidified incubator. Antibodies were purchased from Abcam (septin-2; ab179436) and Cell Signaling Technology; ERK (9102), p-ERK (4370), -actin (3700), u-Tubulin (2144), EGFR (4267) and HER2 (4290). FCF was purchased from Abcam. All other chemicals were from Sigma Aldrich. Synthesis of Derivaties. […] The reaction was monitored using thin-layer chromatography plates with DCM-MeOH or pure ethyl acetate as eluent. Spots were monitored in a UV chamber. The reaction mixture, upon completion of the reaction, was poured into wet ice mixture and triturated, then the separated solid was filtered by vacuum. The product was washed with hexane, followed by diethyl ether, and was dried under vacuum. The compounds were characterized by spectrophotometric techniques. Quantitative Real-Time PCR. The indicated cell lines were transfected with siRNA targeting septin-2 or non-targeting control siRNA (Santa Cruz Biotechnology: sc-37007 or sc-40936) using Lipofectamine 3000 (Invitrogen). […] Quantitative real-time PCR was conducted using QuantStudio 12 K Flex Real-Time PCR System (ABI) and the Taqman Gene Expression Assay (ABI) consisting of the FAM-labeled probes as follows: SEPT2 (Hs01565417_ml); WFDC2 (Hs00899484_ml); TBP (Hs00427620_ml) or B2M (Hs00187842_ml), which was used as reference for normalization. […] Cell viability, proliferation, and cellular apoptosis were measured using the MTS (Promega), BrdU cell proliferation (Cell Signaling Technology), and Caspase-Glo 3/7 apoptosis detection (Promega) assays, following the respective manufacturer's recommendations with suitable modification. […] Survival curves between septin high and low population and their statistical significance were analyzed using GraphPad Prism software (Mantel-Cox test). […]

[6] = system: ECC-1 cells; assay: BrdU cell proliferation assay; assay type: cell-based; conditions: ECC-1, 48 hours, BrdU, lower dose ranges
Description: as §2

[7] = system: ECC-1 cells; assay: Caspase-3/7 activity apoptosis assay; assay type: cell-based; conditions: ECC-1, 33 μM, 48 hours
Description: as §1

[8] = system: HER2; assay: Western blot of HER2 expression in ECC-1 and HCH-1 cells; assay type: cell-based; conditions: UR214-7 33 μM, UR214-9 33 μM, FCF 300 μM, 24 hours
Description: as §2

[9] = system: EGFR; assay: Western blot of EGFR expression; assay type: cell-based; conditions: UR214-7 33 μM, UR214-9 33 μM; 24 hours
Description: as §1

O=C(Nc1ccnc(Br)c1)Nc1cccc(C(F)(F)F)c1F [UR214-11]
viability of tumor cells, dose-dependent (FIG. 2E) ([1]; 72 hours, MTS): did not lose activity

O=C(Nc1cnc(Cl)nc1)Nc1cc(SC(F)(F)F)ccc1Cl [UR214-6]
cytotoxic / anti-proliferative activity (FIG. 2A) ([1]; MTS): lack of activity

O=C(Nc1ccc(-n2cccc2)cc1)Nc1ccnc(Cl)c1 [UR214-3]
cytotoxic / anti-proliferative activity (FIG. 2A) ([1]; MTS): not tolerated

O=C(Nc1cccc(OCc2ccccc2)c1)Nc1ccnc(Cl)c1 [UR214-2]
cytotoxic / anti-proliferative activity (FIG. 2A) ([1]; MTS): not tolerated

O=C(Nc1ccc(-c2ncccn2)cc1)Nc1ccnc(Cl)c1 [UR214-4]
cytotoxic / anti-proliferative activity (FIG. 2A) ([1]; MTS): not tolerated

CN(C)C/C=C/C(=O)Nc1cc2c(Nc3ccc(F)c(Cl)c3)ncnc2cc1O[C@H]1CCOC1 [Afatinib]
dysregulated genes, down ([2]; 1 μM UR214-9): 523
dysregulated genes, up ([2]; 1 μM UR214-9): 713
dysregulated (differentially expressed) genes versus control ([2]; 1 μM UR214-9, adjusted p-value <0.05): 1236 genes

O=C(Nc1ccnc(Cl)c1)Nc1cc(SC(F)(F)F)ccc1Cl [UR214-1]
proliferation in multiple endometrial and ovarian cancer cells [1]: blocked proliferation
cytotoxic / anti-proliferative activity (FIG. 2A) ([1]; MTS): very potent cytotoxic activity
HE4 secretion [3]: reduced HE4 secretion

O=C(Nc1ccnc(Cl)c1)Nc1cccc(SC(F)(F)F)c1F [UR214-7]
proliferation in multiple endometrial and ovarian cancer cells [1]: blocked proliferation
viability of tumor cells, dose-dependent (FIG. 2E) [4]: superior efficacy
concentration inhibiting viability [5]: ≥ 11 µM
proliferation [6]: reduce proliferation
apoptosis (caspase-3/7 activity) [7]: caused apoptosis
HER2 expression [8]: inhibition of HER2 expression
EGFR expression [9]: did not have an effect
HE4 secretion [3]: reduced HE4 secretion

— patent US12433876B2, “Septin inhibitors for treatment of cancers” (UNIVERSITY OF ROCHESTER, priority 2019, dated 2025)
